Measurements: patent US8586719B2, “Triterpenes for modulating gene expression and cell membrane, and as antiprotozoal agents” (Pacific Arrow Limited, priority 2005, dated 2013)
Values after ≈ are worked out from the molar mass of the structure shown. Read-outs that look alike come from different tables or passages of the source.

Key:
[1] = test system: Leishmania Major (promastigotes); assay: Cell growth of Leishmania parasites by MTT assay; type: cell-based; conditions: for IC50: Leishmania major, read-out: IC50, cytotoxic to Leishmania Major (promastigotes)
Experimental: Method: Leishmania parasites (Leishmania major: MRHO/SU/59/P/LV39) were grown in culture medium in a T75 flask at room temperature. Promastigotes of Leishmania major (approximately 40 million per ml) were used in the experiment. 1.2 ml cell culture was transferred to a well of the 24-wells plate. Saponin Y10 (0.2 ml in medium) with different concentrations (final 6.25-200 ug/ml) was added to culture and cells were grown for 1-5 days at room temperature. At the end of drug-treatment, 150 ul of MTT (5 mg/ml in PBS) was added to each well and incubated for 4 hours. Formazan formed in cells was dissolved with DMSO and the OD at 490 nm was determined by an ELISA reader.

[2] = test system: Fibronectin; assay: Fibronectin secretion from ES2 cells; type: cell-based, human
Experimental: (§1) Reduction of Fibronectin secretion from ES2 cells after xanifolia-Y treatment. • (Results of F1, F3, F4, F5, F7, F8, F11, F12A, F15, F16, F17) Data in PCT/US2008/002086, 1188-ALA-PCT, filed Feb. 15, 2008 are incorporated herein by reference • (F11) For lung carcinoma cells (H460), at concentration of 20 ug/ml, there are inhibitions of Fibronectin secretion ranged from 20-60%. • (F12A) For bladder carcinoma cells (HTB-9), Xanifolia-Y (10 ug/ml) inhibits 50% of Fibronectin secretion. • (F15) In liver HepG2 cells. 10 ug/ml of xanifolia-Y inhibits 42% secretion of Fibronectin. • (F16) Incubation of brain glioblastoma T98G cells with 10 ug/ml of xanifolia-Y inhibits 27% Fibronectin secretion and with 20 ug/ml Y inhibits 74% Fibronectin secretion. • (F17) For skin SK-MeI-5 cells, the inhibition is 40-57% with 20 ug/ml of Xanifolia-Y.

[3] = test system: Fibronectin; assay: Fibronectin secretion, lung carcinoma cells (H460); type: cell-based, human; conditions: Lung H460; concentration 10 (label suffix)
Experimental: as §1

[4] = test system: Fibronectin; assay: Fibronectin secretion, bladder carcinoma cells (HTB-9); type: cell-based, human; conditions: Bladder HTB-9; 10 ug/ml (table: label suffix -10)
Experimental: as §1

[5] = test system: Fibronectin; assay: Fibronectin secretion, liver HepG2 cells; type: cell-based, human; conditions: 10 ug/ml (table: label suffix -10)
Experimental: as §1

[6] = test system: Fibronectin; assay: Fibronectin secretion, brain glioblastoma T98G cells; type: cell-based, human; conditions: Brain T98G; 10 ug/ml (table: label suffix -10)
Experimental: as §1

[7] = test system: Fibronectin; assay: Fibronectin secretion, skin SK-MEL-5 cells; type: cell-based, human; conditions: Skin SK-MEL-5; concentration 10 (label suffix)
Experimental: as §1

[8] = test system: cancer cells; assay: Anticancer activity of alkaline-hydrolysed saponins (cells not stated); type: cell-based; conditions: after removal of acyl groups by alkaline hydrolysis
[9] = concentration 10 (label suffix; text uses ug/ml)

In the case of `C/C=C(/C)C(=O)O[C@H]1[C@H](OC(=O)/C(C)=C\C)[C@@]2(CO)C(CC1(C)C)C1=CCC3[C@@]4(C)CC[C@H](O[C@@H]5OC(C(=O)O)[C@@H](O)C(O)C5O[C@@H]5OC(CO)[C@H](O)C(O)C5O)C(C)(C)C4CC[C@@]3(C)[C@]1(C)[C@@H](O)[C@H]2O` (stereo partly shown) [Y5], the “IC50, cytotoxic to Leishmania Major (promastigotes)” value (shortened to “IC50, cytotoxic to Leishmania Major”) ([1]; MTT assay, promastigotes) is reported as 16 µg/mL (≈ 15.9 µM).

With `C/C=C(/C)C(=O)O[C@H]1[C@H](OC(=O)/C(C)=C\C)[C@@]2(CO)C(CC1(C)C)C1=CCC3[C@@]4(C)CC[C@H](O[C@@H]5OC(C(=O)O)[C@@H](O)C(O[C@@H]6OC[C@@H](O)C(O)C6O)C5O[C@@H]5OC(CO)[C@H](O)C(O)C5O)C(C)(C)C4CC[C@@]3(C)[C@]1(C)C[C@H]2O` (stereo partly drawn) [Ba1, 3-O-[β-D-galactopyranosyl(1→2)]-β-D-xylopyranosyl(1→3)-β-D-glucuronopyranosyl-21-O-angeloyl, 22-O-angeloyl-3β, 15α, 21β, 22α, 28-pentahydroxyolean-12-ene] the “IC50, cytotoxic to Leishmania Major” value ([1]; MTT assay, promastigotes) was 15 µg/mL (≈ 13.3 µM), the “% inhibition of Fibronectin secretion” value [2, 9] was 30% and the “% inhibition of Fibronectin secretion” value [3] was 19%. For the same compound, the “% inhibition of Fibronectin secretion” value [4] was 25%, the “% inhibition of Fibronectin secretion” value [5] was 33% and the “% inhibition of Fibronectin secretion” value [6] was 26%. For the same compound, the “% inhibition of Fibronectin secretion” value [7] was 10%.

For `CC=C(C)C(=O)OC1C(OC(=O)c2ccccc2)C(C)(C)CC2C3=CCC4C5(C)CCC(OC6OC(C(=O)OC)C(O)C(OC7OCC(O)C(O)C7O)C6OC6OC(CO)C(O)C(O)C6O)C(C)(C)C5CCC4(C)C3(C)CC(O)C21CO` (stereo not shown) [Ba4], the “% inhibition of Fibronectin secretion” value [2, 9] was 28%, the “% inhibition of Fibronectin secretion” value [3] was 18% and the “% inhibition of Fibronectin secretion” value [4] was 30%. For the same compound, the “% inhibition of Fibronectin secretion” value [5] was 28%, the “% inhibition of Fibronectin secretion” value [6] was 24% and the “% inhibition of Fibronectin secretion” value [7] was 10%.

In the case of `C/C=C(/C)C(=O)O[C@H]1[C@H](OC(C)=O)C(C)(C)CC2C3=CCC4[C@@]5(C)CC[C@H](O[C@@H]6OC(C(=O)OCCCC)[C@@H](O)C(O[C@@H]7O[C@@H](CO)C(O)C7O)C6O[C@@H]6OC(CO)[C@H](O)C(O)C6O)C(C)(C)C5CC[C@@]4(C)[C@]3(C)C[C@@H](O)[C@]21CO` (stereo partly drawn) [X, 3-O-{[β-D-galactopyranosyl(1→2)]-[α-L-arabinofuranosyl(1→3)]-β-D-glucuronopyranosidebutyl ester}-21-O-acetyl-22-O-angeloyl-3β,16α, 21β,22α, 28-pentahydroxyolean-12-ene], the “% inhibition of Fibronectin secretion” value [2, 9] is reported as 39%.

With `C/C=C(/C)C(=O)O[C@H]1[C@H](OC(=O)C(C)C)[C@@]2(CO)C(CC1(C)C)C1=CCC3[C@@]4(C)CC[C@H](O[C@@H]5OC(C(=O)O)[C@@H](O)C(O[C@@H]6O[C@@H](CO)C(O)C6O)C5O[C@@H]5OC(CO)[C@H](O)C(O)C5O)C(C)(C)C4CC[C@@]3(C)[C@]1(C)[C@@H](O)[C@H]2O` (stereo partly drawn) [Y0, 3-O-[β-D-galactopyranosyl(1→2)]-α-L-arabinofuranosyl(1→3)-β-D-glucuronopyranosyl-21-O-angeloyl, 22-O-(2-methylpropanoyl)-3β, 15α, 16α, 21β, 22α, 28-hexahydroxyolean-12-ene] the “IC50, cytotoxic to Leishmania Major” value ([1]; MTT assay, promastigotes) was 25 µg/mL (≈ 22.1 µM) and the “% inhibition of Fibronectin secretion” value [2, 9] was 34%.

`C/C=C(/C)C(=O)O[C@H]1[C@H](O)[C@@]2(COC(=O)C(C)CC)C(CC1(C)C)C1=CCC3[C@@]4(C)CC[C@H](O[C@@H]5OC(C(=O)O)[C@@H](O)C(O[C@@H]6O[C@@H](CO)C(O)C6O)C5O[C@@H]5OC(CO)[C@H](O)C(O)C5O)C(C)(C)C4CC[C@@]3(C)[C@]1(C)[C@@H](O)[C@H]2O` (stereo partly drawn) [Y7, 3-O-[β-D-galactopyranosyl-(1→2)]-α-L-arabinofuranosyl-(1→3)-β-D-glucuronopyranosyl-21-O-angeloyl-28-O-2-methylbutanoyl-3β, 15α, 16α, 21β, 22α, 28-hexahydroxyolean-12-ene] was tested, and the “IC50, cytotoxic to Leishmania Major” value ([1]; MTT assay, promastigotes) was 18 µg/mL (≈ 15.7 µM) and the “% inhibition of Fibronectin secretion” value [2, 9] was 34%.

`CC=C(C)C(=O)OC1C(OC(=O)C(C)=CC)C23C(O)CC4(C)C5(C)CCC6C(C)(C)C(OC7OC(C(=O)O)C(O)C(OC8OC(CO)C(O)C(O)C8OC8OC(C)C(O)C(O)C8OC8OC(C)C(O)C(O)C8O)C7OC7OC(CO)C(O)C(O)C7O)CCC6(C)C5CCC4(OC2O)C3CC1(C)C` (stereo not shown) [Mb5] was tested, and the “IC50, cytotoxic to Leishmania Major” value ([1]; MTT assay, promastigotes) was 15 µg/mL (≈ 10.2 µM), the “% inhibition of Fibronectin secretion” value [2, 9] was 35% and the “% inhibition of Fibronectin secretion” value [3] was 25%. For the same compound, the “% inhibition of Fibronectin secretion” value [4] was 28%, the “% inhibition of Fibronectin secretion” value [5] was 35% and the “% inhibition of Fibronectin secretion” value [6] was 33%. For the same compound, the “% inhibition of Fibronectin secretion” value [7] was 15%.

In the case of `CC1O[C@@H](OC2[C@H](OC3[C@H](O[C@H]4C(O[C@@H]5OC(CO)[C@H](O)[C@@H](O)C5O)[C@H](O[C@H]5CC[C@@]6(C)C(CC[C@]7(C)C6CC[C@]68O[C@H](O)[C@]9(C6CC(C)(C)[C@@H](O)[C@@H]9O)[C@H](O)C[C@]87C)C5(C)C)OC(C(=O)O)[C@H]4O)OC(CO)[C@H](O)[C@H]3O)OC(C)[C@H](O)[C@@H]2O)C(O)[C@@H](O)[C@H]1O` (stereo partly shown) [AKOH-Mb5], the anticancer activity [8] is reported as “lost anticancer activity”, the “cytotoxic to Leishmania Major (promastigotes)” value ([1]; MTT assay, promastigotes) is reported as “not cytotoxic” and the “% inhibition of Fibronectin secretion” value ([2]; concentration 40 (label suffix)) is reported as “No effect”.

In the case of `C/C=C(/C)C(=O)O[C@H]1[C@H](OC(=O)/C(C)=C\C)[C@@]23C(CC1(C)C)[C@]1(CCC4[C@@]5(C)CC[C@H](O)C(C)(C)C5CC[C@@]4(C)[C@]1(C)C[C@H]2O)O[C@@H]3O` (stereo partly shown) [ACH-Mb5], the IC50 ([1]; MTT assay, promastigotes) is reported as 18 µg/mL (≈ 26.8 µM).

In the case of `C/C=C(/C)C(=O)O[C@H]1[C@H](OC(=O)/C(C)=C/C)[C@@]2(CO)C(CC1(C)C)C1=CCC3[C@@]4(C)CC[C@H](O[C@@H]5OC(C(=O)O)[C@@H](O)C(O[C@@H]6OC[C@@H](O)C(O)C6O)C5O[C@@H]5OC(CO)[C@H](O)C(O)C5O)C(C)(C)C4CC[C@@]3(C)[C@]1(C)C[C@H]2O` (stereo partly drawn) [Z12, 3-O-[β-D-galactopyranosyl(1→2)]-β-D-xylopyranosyl(1→3)-β-D-glucuronopyranosyl-21-O-angeloyl, 22-O-tigloyl-3β, 16α, 21β, 22α, 28-pentahydroxyolean-12-ene], the “IC50, cytotoxic to Leishmania Major” value ([1]; MTT assay, promastigotes) is reported as 23 µg/mL (≈ 20.4 µM).

With `CC1(C)CC2C3=CCC4[C@@]5(C)CC[C@H](O[C@@H]6OC(C(=O)O)[C@@H](O)[C@@H](O[C@@H]7O[C@@H](CO)C(O)[C@@H]7O)C6O[C@@H]6OC(CO)[C@H](O)[C@@H](O)C6O)C(C)(C)C5CC[C@@]4(C)[C@]3(C)[C@@H](O)[C@@H](O)[C@@]2(CO)[C@@H](O)[C@@H]1O` (stereo partly shown) [AKOH-Y] the anticancer activity [8] was “lost anticancer activity” and the “cytotoxic to Leishmania Major (promastigotes)” value ([1]; MTT assay, promastigotes) was “not cytotoxic”.

`C/C=C(/C)C(=O)O[C@@H]1C(O)[C@H](O[C@H]2[C@H](OC(C)=O)[C@@]3(CO)C(CC2(C)C)C2=CCC4[C@@]5(C)CC[C@H](O[C@@H]6OC(C(=O)O)[C@@H](O)[C@@H](O[C@@H]7O[C@@H](CO)[C@@H](O)C7O)C6O[C@@H]6OC(CO)[C@H](O)[C@@H](O)C6O)C(C)(C)C5CC[C@@]4(C)[C@]2(C)C[C@H]3O)OC(C)[C@@H]1OC(=O)/C(C)=C\C` (stereo partly drawn) [Y1, 3-O-[β-D-galactopyranosyl (1→2)]-α-L-arabinofuranosyl(1→3)-β-D-glucuronopyranosyl-21-O-(3,4-diangeloyl)-α-L-rhamnophyranosyl-22-O-acetyl-3β,16α, 21β, 22α, 28-pentahydroxyolean-12-ene] showed an IC50 [1] of 23 µg/mL (≈ 17.5 µM).
